# Experimental data reported in US20260022142A1, “MACROCYCLIC IMMUNOMODULATORS” (Bristol-Myers Squibb Company, priority 2022, published 2026).
# Numbered stars: 1 amine (or outer) side, 2 acyl side, 3 side chain; on linkers, the order of the positions; unused ones are H or OH. Bridge positions count the residues as written; N and C are the ends. Square brackets hold non-standard residues; d marks the D form. Peptide text beside a SMILES is read from it. * marks the point of attachment. ξ: configuration not given here. Phe(3-CF3) = N[C@@H](Cc1cccc(C(F)(F)F)c1)C(=O)O; Ala(morpholin-4-yl) = N[C@@H](CN1CCOCC1)C(=O)O; Phe(4-COOH) = N[C@@H](Cc1ccc(C(=O)O)cc1)C(=O)O; d(γGlu) = O=C(O)[C@@H](CCC(=O)[*:2])N[*:1]; Bip = N[C@@H](Cc1ccc(-c2ccccc2)cc1)C(=O)O; NH(CH2)14COOH = O=C(O)CCCCCCCCCCCCCCN*; Phe(3-Me) = Cc1cccc(C[C@H](N)C(=O)O)c1; NH(CH2)12COOH = O=C(O)CCCCCCCCCCCCN*; Val(3-OH) = CC(C)(O)[C@H](N)C(=O)O; hArg = N=C(N)NCCCC[C@H](N)C(=O)O; 3Pal = N[C@@H](Cc1cccnc1)C(=O)O; Cha = N[C@@H](CC1CCCCC1)C(=O)O; Cit = NC(=O)NCCC[C@H](N)C(=O)O; Thr(3ξ) = CC(O)[C@H](N)C(=O)O; PEG4 = NCCOCCOCCOCCOCCC(=O)O; 12Ado = NCCCCCCCCCCCC(=O)O; dDab = NCC[C@@H](N)C(=O)O; hSer = N[C@@H](CCO)C(=O)O; Carboxymethyl = O=C(O)C*; Orn = NCCC[C@H](N)C(=O)O; Aun = NCCCCCCCCCCC(=O)O; Dab = NCC[C@H](N)C(=O)O; Dap = NC[C@H](N)C(=O)O; AEEA = NCCOCCOCC(=O)O; ξC = NC(CS)C(=O)O; Sar = CNCC(=O)O
# Target: T1, PD-1/PD-L1 interaction (PE-labeled human PD-L1-Ig binding to Jurkat cell line over-expressing human PD-1) (Homo sapiens, UniProt Q15116)
# T1 construct: expressed in transfected cells; host or cells: Jurkat
# T1 sequence (Q15116 25-288): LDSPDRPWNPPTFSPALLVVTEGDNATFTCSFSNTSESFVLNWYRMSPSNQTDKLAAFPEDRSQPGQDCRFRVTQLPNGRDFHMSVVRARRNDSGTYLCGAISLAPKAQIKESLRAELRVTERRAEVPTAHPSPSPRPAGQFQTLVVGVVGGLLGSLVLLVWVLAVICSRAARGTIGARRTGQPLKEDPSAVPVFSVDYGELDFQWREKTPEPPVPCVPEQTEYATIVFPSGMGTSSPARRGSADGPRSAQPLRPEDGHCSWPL
# Experiment: Jurkat-PD-1 Cell Binding High-Content Screening Assay (CBA)
# Format: cell-based
# Conditions: Jurkat cell line over-expressing human PD-1; PE-labeled PD-L1-Ig 20 nM final; read-out: Jurkat hPD1-PDL1 IC50
# Outline: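 Human PD-L1-Ig carrying a covalent PE label on its Ig tag serves as the probe, applied at 20 nM final to compound-treated (2 h, 37° C) Jurkat-hPD-1 cells in medium with 10% fetal calf serum. After one hour, fixation and nuclear staining precede high-content image analysis.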
row,SMILES,IC50 [nM]
1,CC(C)C[C@H]1NC(=O)[C@H](CCCN)NC(=O)[C@H](Cc2ccc(C(=O)O)cc2)NC(=O)[C@H](Cc2ccc(-c3ccccc3)cc2)NC(=O)[C@H](Cc2ccc(C(=O)O)cc2)NC(=O)[C@H](Cc2cccc(C(F)(F)F)c2)NC(=O)[C@H](CC(=O)O)NC(=O)[C@H](Cc2ccc(OCC(=O)O)cc2)NC(=O)[C@H](CN2CCOCC2)NC(=O)CSC[C@@H](C(=O)N[C@@H](CCN)C(=O)NCCOCCOCCOCCOCCC(=O)NCCCCCCCCCCCCCCC(=O)O)NC(=O)[C@H](CO)NC(=O)[C@H](C(C)(C)O)NC(=O)[C@H](CC2CCCCC2)NC(=O)[C@H](CCN)NC1=O [Compound 2917] ({CH2CO}-[Ala(morpholin-4-yl)]Y(Carboxymethyl)D[Phe(3-CF3)][Phe(4-COOH)][Bip][Phe(4-COOH)][Orn][dL][Dab][Cha][Val(3-OH)]SC[Dab][PEG4]-{NH(CH2)14COOH}; thioether N-14),135
2,Cc1cccc(C[C@@H]2NC(=O)[C@H](CC(=O)O)NC(=O)[C@H](Cc3ccc(OCC(=O)O)cc3)NC(=O)[C@H](CCCNC(=N)N)NC(=O)CSC[C@@H](C(=O)N[C@@H](CCO)C(=O)N[C@@H](CCC(=O)O)C(=O)NCCCCCCCCCCCC(=O)O)NC(=O)[C@H](C(C)O)NC(=O)[C@H](C(C)C)NC(=O)[C@H](CC3CCCCC3)NC(=O)[C@H](CCN)NC(=O)[C@@H](CC(C)C)NC(=O)[C@H](CCCN)NC(=O)[C@H](CCCNC(N)=O)NC(=O)[C@H](Cc3ccc(-c4ccccc4)cc3)NC(=O)[C@H](C(C)C)NC2=O)c1 (stereo partly drawn) [Compound 3564] ({CH2CO}-RY(Carboxymethyl)D[Phe(3-Me)]V[Bip][Cit][Orn][dL][Dab][Cha]V[Thr(3ξ)]C[hSer]E[12Ado]-OH; thioether N-14),19.5
3,Cc1cccc(C[C@@H]2NC(=O)[C@H](CC(=O)O)NC(=O)[C@H](Cc3ccc(OCC(=O)O)cc3)NC(=O)[C@H](CN)NC(=O)CSC[C@@H](C(=O)N[C@@H](CC(=O)O)C(=O)NCCCCCCCCCCC(=O)O)NC(=O)[C@H]([C@@H](C)O)NC(=O)[C@H](C(C)C)NC(=O)[C@H](CC3CCCCC3)NC(=O)[C@H](Cc3cnc[nH]3)NC(=O)[C@@H](CC(C)C)NC(=O)[C@H](CCCN)NC(=O)[C@H](C(C)C)NC(=O)[C@H](Cc3ccc(-c4ccccc4)cc3)NC(=O)[C@H](C(C)C)NC2=O)c1 [Compound 1107] ({CH2CO}-[Dap]Y(Carboxymethyl)D[Phe(3-Me)]V[Bip]V[Orn][dL]H[Cha]VTCD[Aun]-OH; thioether N-14),35.8
4,Cc1cccc(C[C@@H]2NC(=O)[C@H](CC(=O)O)NC(=O)[C@H](Cc3ccc(OCC(=O)O)cc3)NC(=O)[C@H](CN)NC(=O)CSC[C@@H](C(=O)N[C@@H](CCN)C(=O)NCCCCCCCCCCC(=O)O)NC(=O)[C@H](Cc3cccnc3)NC(=O)[C@H](C(C)C)NC(=O)[C@H](CC3CCCCC3)NC(=O)[C@H](CCN)NC(=O)[C@@H](CC(C)C)NC(=O)[C@H](CCCN)NC(=O)[C@H](Cc3ccc(O)cc3)NC(=O)[C@H](Cc3ccc(-c4ccccc4)cc3)NC(=O)[C@H](C(C)C)NC2=O)c1 [Compound 2766] ({CH2CO}-[Dap]Y(Carboxymethyl)D[Phe(3-Me)]V[Bip]Y[Orn][dL][Dab][Cha]V[3Pal]C[Dab][Aun]-OH; thioether N-14),55.9
5,Cc1cccc(C[C@@H]2NC(=O)[C@H](CC(=O)O)NC(=O)[C@H](Cc3ccc(OCC(=O)O)cc3)NC(=O)[C@H](CN)NC(=O)CSC[C@@H](C(=O)N[C@@H](CCN)C(=O)NCCCCCCCCCCC(=O)O)NC(=O)[C@@H](CC(N)=O)NC(=O)[C@H](C(C)C)NC(=O)[C@H](CC3CCCCC3)NC(=O)[C@H](CCN)NC(=O)[C@@H](CC(C)C)NC(=O)[C@H](CCCN)NC(=O)[C@H](Cc3ccc(O)cc3)NC(=O)[C@H](Cc3ccc(-c4ccccc4)cc3)NC(=O)[C@H](C(C)C)NC2=O)c1 [Compound 2754] ({CH2CO}-[Dap]Y(Carboxymethyl)D[Phe(3-Me)]V[Bip]Y[Orn][dL][Dab][Cha]V[dN]C[Dab][Aun]-OH; thioether N-14),53.9
6,CC(C)C[C@H]1NC(=O)[C@H](CCCN)NC(=O)[C@H](C(C)C)NC(=O)[C@H](Cc2ccc(-c3ccccc3)cc2)NC(=O)[C@H](C(C)C)NC(=O)[C@H](Cc2c[nH]c3ccccc23)NC(=O)[C@H](CC(=O)O)NC(=O)[C@H](Cc2ccc(OCC(=O)O)cc2)NC(=O)[C@H](CCCCNC(=N)N)NC(=O)CSC[C@@H](C(=O)N(C)CC(=O)NCCOCCOCC(=O)N[C@@H](CCCN)C(=O)NCCCCCCCCCCCC(=O)O)NC(=O)[C@H](CO)NC(=O)[C@H](C(C)C)NC(=O)[C@H](CC2CCCCC2)NC(=O)[C@H](CCN)NC1=O [Compound 3361] ({CH2CO}-[hArg]Y(Carboxymethyl)DWV[Bip]V[Orn][dL][Dab][Cha]VSC[Sar][AEEA][Orn][12Ado]-OH; thioether N-14),18.7
7,CC(C)C[C@H]1NC(=O)[C@H](CCCN)NC(=O)[C@H](Cc2ccc(OCC(=O)O)cc2)NC(=O)[C@H](Cc2ccc(-c3ccccc3)cc2)NC(=O)[C@H](Cc2ccc(OCC(=O)O)cc2)NC(=O)[C@H](Cc2cccc(C(F)(F)F)c2)NC(=O)[C@H](CC(=O)O)NC(=O)[C@H](Cc2ccc(OCC(=O)O)cc2)NC(=O)[C@H](CC2CCCCC2)NC(=O)CSC[C@@H](C(=O)N[C@H](CCN)C(=O)NCCOCCOCC(=O)NCCCCCCCCCCCCC(=O)O)NC(=O)[C@H](CC(=O)O)NC(=O)[C@H](C(C)C)NC(=O)[C@H](CC2CCCCC2)NC(=O)[C@H](CCN)NC1=O [Compound 3826] ({CH2CO}-[Cha]Y(Carboxymethyl)D[Phe(3-CF3)]Y(Carboxymethyl)[Bip]Y(Carboxymethyl)[Orn][dL][Dab][Cha]VDC[dDab][AEEA]-{NH(CH2)12COOH}; thioether N-14),72.5
8,CC(C)C[C@H]1NC(=O)[C@H](CCCN)NC(=O)[C@H](C(C)C)NC(=O)[C@H](Cc2ccc(-c3ccccc3)cc2)NC(=O)[C@H](C(C)C)NC(=O)[C@H](Cc2c[nH]c3ccccc23)NC(=O)[C@H](CC(=O)O)NC(=O)[C@H](Cc2ccc(OCC(=O)O)cc2)NC(=O)[C@H](CCCCNC(=N)N)NC(=O)CSC[C@@H](C(=O)NCC(=O)NCCOCCOCC(=O)N[C@@H](CCCN)C(=O)NCCCCCCCCCCCC(=O)O)NC(=O)[C@H](CN)NC(=O)[C@H](C(C)C)NC(=O)[C@H](CC2CCCCC2)NC(=O)[C@H](CCN)NC1=O [Compound 3173] ({CH2CO}-[hArg]Y(Carboxymethyl)DWV[Bip]V[Orn][dL][Dab][Cha]V[Dap]CG[AEEA][Orn][12Ado]-OH; thioether N-14),21.2

# Now those with a lower IC50, led by results:
row,IC50 [nM],SMILES
1,11.5,Cc1cccc(C[C@@H]2NC(=O)[C@H](CC(=O)O)NC(=O)[C@H](Cc3ccc(OCC(=O)O)cc3)NC(=O)[C@H](CN)NC(=O)CSC[C@@H](C(=O)N[C@@H](CCCCN)C(=O)NCCOCCOCC(=O)NCCCCCCCCCCC(=O)O)NC(=O)[C@H](CCCN)NC(=O)[C@H](C(C)C)NC(=O)[C@H](CC3CCCCC3)NC(=O)[C@H](CCN)NC(=O)[C@@H](CC(C)C)NC(=O)[C@H](CCCN)NC(=O)[C@H](CCC(=O)O)NC(=O)[C@H](Cc3ccc(-c4ccccc4)cc3)NC(=O)[C@H](C(C)C)NC2=O)c1 [Compound 2669] ({CH2CO}-[Dap]Y(Carboxymethyl)D[Phe(3-Me)]V[Bip]E[Orn][dL][Dab][Cha]V[Orn]CK[AEEA][Aun]-OH; thioether N-14)
2,9.5,Cc1cccc(C[C@@H]2NC(=O)[C@H](CC(=O)O)NC(=O)[C@H](Cc3ccc(OCC(=O)O)cc3)NC(=O)[C@H](CN)NC(=O)CSC[C@@H](C(=O)NCCOCCOCC(=O)N[C@@H](CCN)C(=O)NCCCCCCCCCCC(=O)O)NC(=O)[C@H](CCCN)NC(=O)[C@H](C(C)C)NC(=O)[C@H](CC3CCCCC3)NC(=O)[C@H](CCN)NC(=O)[C@@H](CC(C)C)NC(=O)[C@H](CCCN)NC(=O)[C@H](C(C)C)NC(=O)[C@H](Cc3ccc(-c4ccccc4)cc3)NC(=O)[C@H](C(C)C)NC2=O)c1 [Compound 2543] ({CH2CO}-[Dap]Y(Carboxymethyl)D[Phe(3-Me)]V[Bip]V[Orn][dL][Dab][Cha]V[Orn]C[AEEA][Dab][Aun]-OH; thioether N-14)
3,8.7,Cc1cccc(C[C@@H]2NC(=O)[C@H](CC(=O)O)NC(=O)[C@H](Cc3ccc(OCC(=O)O)cc3)NC(=O)[C@H](CCCNC(=N)N)NC(=O)CSC[C@@H](C(=O)NCCOCCOCC(=O)N[C@H](CCC(=O)NCCCCCCCCCCC(=O)O)C(=O)O)NC(=O)[C@H](C(C)O)NC(=O)[C@H](C(C)C)NC(=O)[C@H](CC3CCCCC3)NC(=O)[C@H](CCN)NC(=O)[C@@H](CC(C)C)NC(=O)[C@H](CCCN)NC(=O)[C@H](CCCNC(N)=O)NC(=O)[C@H](Cc3ccc(-c4ccccc4)cc3)NC(=O)[C@H](C(C)C)NC2=O)c1 (stereo partly drawn) [Compound 3400] ({CH2CO}-RY(Carboxymethyl)D[Phe(3-Me)]V[Bip][Cit][Orn][dL][Dab][Cha]V[Thr(3ξ)]C[AEEA][d(γGlu)][Aun]-OH; thioether N-14)
4,7.8,Cc1cccc(C[C@@H]2NC(=O)[C@H](CC(=O)O)NC(=O)[C@H](Cc3ccc(OCC(=O)O)cc3)NC(=O)[C@H](CN)NC(=O)CSC[C@@H](C(=O)N[C@@H](CCN)C(=O)NCCOCCOCC(=O)NCCCCCCCCCCC(=O)O)NC(=O)[C@H](CCCN)NC(=O)[C@H](C(C)C)NC(=O)[C@H](CC3CCCCC3)NC(=O)[C@H](CCN)NC(=O)[C@@H](CC(C)C)NC(=O)[C@H](CCCN)NC(=O)[C@H](Cc3ccc(OCC(=O)O)cc3)NC(=O)[C@H](Cc3ccc(-c4ccccc4)cc3)NC(=O)[C@H](Cc3ccc(O)cc3)NC2=O)c1 [Compound 2859] ({CH2CO}-[Dap]Y(Carboxymethyl)D[Phe(3-Me)]Y[Bip]Y(Carboxymethyl)[Orn][dL][Dab][Cha]V[Orn]C[Dab][AEEA][Aun]-OH; thioether N-14)
5,7.7,Cc1cccc(C[C@@H]2NC(=O)[C@H](CC(=O)O)NC(=O)[C@H](Cc3ccc(OCC(=O)O)cc3)NC(=O)[C@H](CN)NC(=O)CSCC(C(=O)NCCOCCOCC(=O)NCCCCCCCCCCC(=O)O)NC(=O)[C@H](CCCN)NC(=O)[C@H](C(C)C)NC(=O)[C@H](CC3CCCCC3)NC(=O)[C@H](CCN)NC(=O)[C@@H](CC(C)C)NC(=O)[C@H](CCCN)NC(=O)[C@H](CCCNC(N)=O)NC(=O)[C@H](Cc3ccc(-c4ccccc4)cc3)NC(=O)[C@H](C(C)C)NC2=O)c1 (stereo partly drawn) [Compound 2647] ({CH2CO}-[Dap]Y(Carboxymethyl)D[Phe(3-Me)]V[Bip][Cit][Orn][dL][Dab][Cha]V[Orn][ξC][AEEA][Aun]-OH; thioether N-14)
